Assay results reported in patent EP4725957A1, “GROUP OF CYCLIC ALKALINE LIPOPEPTIDE COMPOUNDS, AND PREPARATION METHOD THEREFOR AND USE THEREOF” (Institute of Medicinal Biotechnology, Chinese Academy of …, priority 2023, dated 2024).
In brackets after ≈: the same amount, converted by molar mass. Bridge positions count the residues as written; N and C are the ends. Square brackets hold non-standard residues; d marks the D form. Peptide text beside a SMILES is read from it. * marks the point of attachment. Dab(CH2SO3H) = N[C@@H](CCNCS(=O)(=O)O)C(=O)O; Heptanoyl(6-Me) = CC(C)CCCCC(=O)*; X1 = CC[C@H](C)CCCCC(=O)*; dDab = NCC[C@@H](N)C(=O)O; Heptanoyl = CCCCCCC(=O)*; Octanoyl = CCCCCCCC(=O)*; Orn = NCCC[C@H](N)C(=O)O; Dab = NCC[C@H](N)C(=O)O; Dap = NC[C@H](N)C(=O)O

What was measured:
Format in all cases: cell-based
[1] = test system: Acinetobacter baumannii ABA19-1; conditions: ABA19-1
Procedure: (§1) The minimal inhibitory concentration (MIC) was determined by the broth microdilution method according to the recommended procedures of the Clinical and Laboratory Standards Institute (CLSI).
(§2) An appropriate amount of the cyclic lipopeptide compounds prepared in Examples 1-120 and the reference standards were weighed and dissolved in sterile pure water. An appropriate volume of the mother solution was subjected to ten-fold dilution with sterile Mueller-Hinton (MH) broth to a concentration of 0.256 mg/mL. Half of the drug solution was aliquoted into 96-well reagent reservoirs, while the other half was subjected to two-fold serial dilution with sterile MH broth before being transferred into deep-well reagent reservoirs. The above steps were repeated, so that the drug concentrations in the reagent reservoirs were adjusted to 128, 64, 32, 16, 8, 4, 2, 1, 0.5, 0.25, 0.125 and 0.06 mg/L in sequence, and all solutions were prepared and used immediately. Several colonies were picked from agar plates cultured for 18-24 h and directly suspended in sterile normal saline, and the concentration of the bacterial suspension was adjusted to 0.5 McFarland units. The calibrated bacterial suspension was diluted with MH broth to a concentration of (4-8) × 10^5 colony-forming units per milliliter (CFU/mL) and prepared and used immediately. A volume of 100 µL of the aforementioned compounds of the present disclosure (e.g., the compounds prepared in the examples) and reference solutions at different concentrations was separately pipetted into wells 1 to 12 of sterile 96-well polystyrene plates, and an additional 100 µL of the aforementioned inoculum was added to each well. The final concentrations of the samples in the wells were adjusted to 64, 32, 16, 8, 4, 2, 1, 0.5, 0.25, 0.125, 0.06 and 0.03 mg/L, respectively, and the final concentration of the inoculum in each well was (2-4) × 10^5 CFU/mL. Additional growth control wells were set up, each containing 100 µL of the inoculum and 100 µL of sterile MH broth. The test substances and inocula in all wells were mixed thoroughly and then sealed. The inoculated 96-well plates were incubated in an incubator at 35-37°C for 16-20 h.
(§3) The strains used for the antibacterial activity assay were obtained from the American Type Culture Collection (ATCC) and clinical isolates.
(§4) The strains employed for the antibacterial activity assay included Escherichia coli ATCC BAA-2523, ATCC BAA-2340 (KPC), Klebsiella pneumoniae KPN+19-15, ATCC BAA-1705 (KPC), Pseudomonas aeruginosa PAE19-3, ATCC 27853, Acinetobacter baumannii ABA19-1, and NCTC 13304 (OXA-27).

[2] = test system: Acinetobacter baumannii NCTC 13304 (OXA-27); conditions: NCTC 13304
Procedure: as §1, §2, §3, §4

[3] = test system: Escherichia coli ATCC BAA-2340 (KPC); conditions: ATCC BAA-2340
Procedure: as §1, §2, §3, §4

[4] = test system: Escherichia coli ATCC BAA-2523; conditions: ATCC BAA-2523
Procedure: as §1, §2, §3, §4

[5] = test system: Klebsiella pneumoniae ATCC BAA-1705 (KPC); conditions: ATCC BAA-1705
Procedure: as §1, §2, §3, §4

[6] = test system: Klebsiella pneumoniae KPN+19-15; conditions: KPN+19-15
Procedure: as §1, §2, §3, §4

[7] = test system: Pseudomonas aeruginosa ATCC 27853; conditions: ATCC 27853
Procedure: as §1, §2, §3, §4

[8] = test system: Pseudomonas aeruginosa PAE19-3; conditions: PAE19-3
Procedure: as §1, §2, §3, §4

[9] = Nephrotoxicity assay: in vitro cytotoxicity of HK-2 cells by CCK-8 assay; conditions: human, HK-2 cells (human renal), 72 h incubation with drug-containing medium
Procedure: In vitro cytotoxicity detection of HK-2 cells was performed by the CCK-8 assay.
The culture medium for human renal HK-2 cells was a complete RPMI-1640 medium (Invitrogen) supplemented with 10% fetal bovine serum (FBS, Gibco). The cryopreservation solution was composed of 90% FBS and 10% dimethyl sulfoxide (DMSO), and the cells were preserved long-term in liquid nitrogen. Cells were cultured in a sterile incubator with a humidified atmosphere containing 5% CO2 at 37°C. When the cell density reached 70%-80%, cell digestion and subculture were conducted. The cyclic lipopeptide compounds prepared in Examples 1-120 were weighed and dissolved in sterile water to prepare a mother solution with a concentration of 1 mg/mL. Drug-containing culture media were then formulated, with the final concentrations set as 500, 250, 200, 100, 50, 25, and 12.5 µg/mL, respectively. Cells were adjusted to a density of 5 × 10^4 cells/mL and seeded into 96-well plates, with 100 µL of cell suspension added to each well. After stable incubation for 24 h, the original medium was replaced with the prepared drug-containing medium, and the plates were incubated in the incubator for an additional 72 h. The medium was gently aspirated, and 100 µL of blank medium containing 10% CCK-8 was added to each well. After incubation in the incubator for 3 h, the optical density (OD) values at 450 nm were measured using a BIOTEK microplate reader. The experiment was repeated three times. For each replicate, polymyxin B was set as the positive drug, and a drug-free blank group was established as the control. The cell viability (%) was calculated by the formula: Cell viability (%) = [(OD of drug-treated group - OD of zero-setting) / (OD of drug-free group - OD of zero-setting)] × 100%. The half-maximal inhibitory concentration (IC50) values were calculated through logarithmic regression analysis.
The cells used for the nephrotoxicity assay were obtained from the ATCC ( American Type Culture Collection). The Cell Counting Kit-8 (CCK-8) used in the assay was supplied by Beyotime Biotechnology Co., Ltd.

SMILES	MIC [1] [µg/mL]	MIC [2] [µg/mL]	MIC [3] [µg/mL]	MIC [4] [µg/mL]	MIC [5] [µg/mL]	MIC [6] [µg/mL]	MIC [7] [µg/mL]	MIC [8] [µg/mL]	IC50 at 72 h [9] [µg/mL]
CCCCCCCC(=O)N[C@@H](CCN)C(=O)N[C@H](C(=O)N[C@H](CO)C(=O)N[C@H]1CCNC(=O)[C@H]([C@@H](C)O)NC(=O)[C@H](CCN)NC(=O)[C@H](CCN)NC(=O)[C@H]([C@@H](C)O)NC(=O)[C@@H](Cc2ccccc2)NC(=O)[C@H](CN)NC1=O)[C@@H](C)O [Compound 63, Octanoyl-Dab-Thr-D-Ser-ring(4-10)[Dab-Dap-D-Phe-Thr-Dab-Dab-Thr]] (Octanoyl-[Dab]T[dS][Dab][Dap][dF]T[Dab][Dab]T; lactam 4-C)	0.25 (≈ 0.217 µM)	0.25 (≈ 0.217 µM)	0.125 (≈ 0.109 µM)	0.125 (≈ 0.109 µM)	0.25 (≈ 0.217 µM)	0.5 (≈ 0.435 µM)	64 (≈ 55.6 µM)	4 (≈ 3.48 µM)	> 500
CC[C@H](C)CCCCC(=O)N[C@@H](CCN)C(=O)N[C@H](C(=O)N[C@H](CO)C(=O)N[C@H]1CCNC(=O)[C@H]([C@@H](C)O)NC(=O)[C@H](CCN)NC(=O)[C@H](CCN)NC(=O)[C@H]([C@@H](C)O)NC(=O)[C@@H](Cc2ccccc2)NC(=O)[C@H](CCCN)NC1=O)[C@@H](C)O [Compound 66, (S)-6-methyloctanoyl-Dab-Thr-D-Ser-ring(4-10)[Dab-Orn-D-Phe-Thr-Dab-Dab-Thr]] (X1-[Dab]T[dS][Dab][Orn][dF]T[Dab][Dab]T; lactam 4-C)	0.25 (≈ 0.21 µM)	0.25 (≈ 0.21 µM)	0.125 (≈ 0.105 µM)	0.125 (≈ 0.105 µM)	0.25 (≈ 0.21 µM)	0.5 (≈ 0.419 µM)	64 (≈ 53.7 µM)	4 (≈ 3.35 µM)	> 500
CCCCCCCC(=O)N[C@@H](CCN)C(=O)N[C@H](C(=O)N[C@H](CCN)C(=O)N[C@H]1CCNC(=O)[C@H]([C@@H](C)O)NC(=O)[C@H](CCN)NC(=O)[C@H](CCN)NC(=O)[C@H]([C@@H](C)O)NC(=O)[C@@H](Cc2ccccc2)NC(=O)[C@H](CCN)NC1=O)[C@@H](C)O [Compound 13, Octanoyl-Dab-Thr-D-Dab-ring(4-10)[Dab-Dab-D-Phe-Thr-Dab-Dab-Thr]] (Octanoyl-[Dab]T[dDab][Dab][Dab][dF]T[Dab][Dab]T; lactam 4-C)	≤0.03	≤0.03	≤0.03	≤0.03	0.06 (≈ 0.051 µM)	≤0.03	1 (≈ 0.849 µM)	1 (≈ 0.849 µM)	> 500
CCCCCCC(=O)N[C@@H](CCN)C(=O)N[C@H](C(=O)N[C@H](CO)C(=O)N[C@H]1CCNC(=O)[C@H]([C@@H](C)O)NC(=O)[C@H](CCCN)NC(=O)[C@H](CCN)NC(=O)[C@H]([C@@H](C)O)NC(=O)[C@@H](Cc2ccccc2)NC(=O)[C@H](CCN)NC1=O)[C@@H](C)O [Compound 89, Heptanoyl-Dab-Thr-D-Ser-ring(4-10)[Dab-Dab-D-Phe-Thr-Dab-Orn-Thr]] (Heptanoyl-[Dab]T[dS][Dab][Dab][dF]T[Dab][Orn]T; lactam 4-C)	0.06 (≈ 0.0515 µM)	0.03 (≈ 0.0258 µM)	0.125 (≈ 0.107 µM)	0.125 (≈ 0.107 µM)	0.25 (≈ 0.215 µM)	0.5 (≈ 0.429 µM)	>64	64 (≈ 55 µM)	> 500
CC(C)CCCCC(=O)N[C@@H](CCN)C(=O)N[C@H](C(=O)N[C@H](CO)C(=O)N[C@H]1CCNC(=O)[C@H]([C@@H](C)O)NC(=O)[C@H](CCN)NC(=O)[C@H](CCNCS(=O)(=O)O)NC(=O)[C@H]([C@@H](C)O)NC(=O)[C@@H](Cc2ccccc2)NC(=O)[C@H](CCN)NC1=O)[C@@H](C)O [Compound 110, 6-methylheptanoyl-Dab-Thr-D-Ser-ring(4-10)[Dab-Dab-D-Phe-Thr-Dab(CH2SO3H)-Dab-Thr]] ({Heptanoyl(6-Me)}-[Dab]T[dS][Dab][Dab][dF]T[Dab(CH2SO3H)][Dab]T; lactam 4-C)	0.25 (≈ 0.199 µM)	0.06 (≈ 0.0477 µM)	0.06 (≈ 0.0477 µM)	0.06 (≈ 0.0477 µM)	0.125 (≈ 0.0993 µM)	0.125 (≈ 0.0993 µM)	0.25 (≈ 0.199 µM)	0.5 (≈ 0.397 µM)	> 500
